Assay results published in ChEMBL document CHEMBL2046386, “Potent and selective aminopyrimidine-based B-Raf inhibitors with favorable physicochemical and pharmacokinetic properties” (J Med Chem, 2012).
Values after ≈ are worked out from the molar mass of the structure shown.

What was measured:
[1] = Thermodynamic solubility of the compound at 0.5 mg/ml after 24 hrs by shake flask method at pH 1.2; assay type: physicochemical; conditions: buffer, read-out: Therm_solubility
[2] = molecular target: T1, Serine/threonine-protein kinase B-raf (Homo sapiens, UniProt P15056, V600E); assay: Inhibition of B-raf V600E mutant-mediated Erk phosphorylation in human MALM-3M cells by fluorometric analysis; assay type: cell-based
T1 sequence (P15056 2-766 V600E limits assumed): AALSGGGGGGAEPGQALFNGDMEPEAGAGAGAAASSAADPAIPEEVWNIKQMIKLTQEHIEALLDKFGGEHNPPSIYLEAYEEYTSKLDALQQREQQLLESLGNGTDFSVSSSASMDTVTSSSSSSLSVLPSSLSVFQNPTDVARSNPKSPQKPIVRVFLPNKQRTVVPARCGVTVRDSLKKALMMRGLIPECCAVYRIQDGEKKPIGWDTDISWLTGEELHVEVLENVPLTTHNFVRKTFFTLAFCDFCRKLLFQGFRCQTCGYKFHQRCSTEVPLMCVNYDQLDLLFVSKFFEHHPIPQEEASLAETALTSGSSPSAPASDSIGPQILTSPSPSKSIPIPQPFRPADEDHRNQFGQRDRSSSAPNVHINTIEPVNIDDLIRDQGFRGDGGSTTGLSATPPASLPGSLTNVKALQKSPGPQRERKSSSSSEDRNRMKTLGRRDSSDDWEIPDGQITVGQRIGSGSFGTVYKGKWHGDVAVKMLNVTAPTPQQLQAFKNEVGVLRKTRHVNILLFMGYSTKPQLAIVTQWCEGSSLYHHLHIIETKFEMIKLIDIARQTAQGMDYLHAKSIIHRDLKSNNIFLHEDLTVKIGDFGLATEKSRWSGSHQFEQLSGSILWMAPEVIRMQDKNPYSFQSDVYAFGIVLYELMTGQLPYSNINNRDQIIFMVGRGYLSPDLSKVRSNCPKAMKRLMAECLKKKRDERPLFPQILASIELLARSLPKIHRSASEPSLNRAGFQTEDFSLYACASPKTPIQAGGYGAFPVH

[3] = Dissociation constant, pKa of the compound at acidic pH; assay type: physicochemical
[4] = molecular target: T1, Serine/threonine-protein kinase B-raf; assay: Inhibition of His6X-tagged human B-raf V600E mutant expressed in baculovirus infected insect cells coexpressing […] using [gamma33P]ATP after 60 mins by scintillation counting
[5] = Dissociation constant, pKa of the compound at basic pH; assay type: physicochemical
[6] = Thermodynamic solubility of the compound at 0.5 mg/ml after 24 hrs by shake flask method at pH 7.4; assay type: physicochemical; conditions: buffer, read-out: Therm_solubility
[7] = Thermodynamic solubility of the compound at 0.5 mg/ml after 24 hrs by shake flask method at pH 6.5; assay type: physicochemical; conditions: buffer, read-out: Therm_solubility
COLO 205 = assay: Antitumor activity against human COLO205 cells expressing B-raf V600E mutant xenografted in po dosed NCr nude mouse assessed as decrease in tumor volume administered once daily for 21 days measured twice a week up to 21 days; assay type: functional
[8] = Lipophilicity, log P of the compound; assay type: physicochemical; conditions: octanol/water
[9] = AUC in mouse at 30 mg/kg, po dosed in 0.5% methylcellulose/0.2% Tween 80/99.3% water; assay type: ADME, organism-based; design: dose 30 mg/kg, route oral; conditions: in vivo
[10] = Plasma protein binding in mouse; assay type: ADME, cell-free; conditions: read-out: PPB (converted)
[11] = Clearance in mouse at 2.5 mg/kg, iv; assay type: ADME, organism-based; design: dose 2.5 mg/kg, route intravenous; conditions: in vivo
Mus musculus = assay: Toxicity in NCr nude mouse xenografted with human COLO205 cells expressing B-raf V600E mutant assessed as adverse effects; assay type: organism-based, COLO 205; conditions: in vivo
[12] = Volume of distribution at steady state in mouse at 2.5 mg/kg, iv; assay type: ADME, organism-based; design: dose 2.5 mg/kg, route intravenous; conditions: in vivo, read-out: Vdss
[13] = Oral bioavailability in mouse at 30 mg/kg; assay type: ADME, organism-based; conditions: in vivo
[14] = Mus musculus, COLO 205, po, 504 h

CCCS(=O)(=O)Nc1ccc(F)c(NC(=O)Nc2ncnc3[nH]nc(OC)c23)c1F
solubility thermodynamic at 24 h [1]: 49 µg/mL (≈ 111 µM) | EC50 [2]: 2.6 nM | pKa [3]: 1.8 | IC50 [4]: 1.6 nM

CCCS(=O)(=O)Nc1ccc(F)c(NC(=O)Nc2cc(N)ncn2)c1F
IC50 [2]: 438 nM

CCCS(=O)(=O)Nc1ccc(F)c(NC(=O)N(C)c2cc(N)ncn2)c1F
IC50 [2]: 240 nM

CCCS(=O)(=O)Nc1ccc(F)c(C(=O)Nc2cnc3[nH]nc(OC)c3c2)c1F
solubility thermodynamic at 24 h [1]: 3 µg/mL (≈ 7.05 µM) | pKa [5]: 0.7 | solubility thermodynamic at 24 h [6]: 9 µg/mL (≈ 21.2 µM) | solubility thermodynamic at 24 h [7]: 4 µg/mL (≈ 9.4 µM) | pKa [3]: 0.7 | TGI (COLO 205): 76% | ED50 (COLO 205; [14]): 25.2 mg/kg | ED90 (COLO 205; [14]): 139 mg/kg

CCCS(=O)(=O)Nc1ccc(Cl)c(NC(=O)c2csc3c(N)ncnc23)c1F
IC50 [2]: 19 nM | IC50 [4]: 0.9 nM

CCCS(=O)(=O)Nc1ccc(F)c(NC(=O)c2csc3c(N)ncnc23)c1F
logP [8]: 2.7 | solubility thermodynamic at 24 h [1]: > 1000 µg/mL | pKa [5]: 3.6 | AUC [9]: 874 µM·h | fraction unbound [10]: 0.016 | IC50 [2]: 15 nM | solubility thermodynamic at 24 h [7]: 5 µg/mL (≈ 11.7 µM) | clearance [11]: 1 mL/min/kg | Activity (Mus musculus): Non-toxic | Vd [12]: 0.2 L/kg | bioavailability [13]: 100% | IC50 [4]: 2.5 nM

CCCS(=O)(=O)Nc1ccc(F)c(NC(=O)Nc2ncnc3[nH]ncc23)c1F
solubility thermodynamic at 24 h [1]: 7 µg/mL (≈ 17 µM) | IC50 [2]: 88 nM | IC50 [4]: 5.6 nM
